In patent US20180252704A1, “SCREENING ASSAY TO IDENTIFY IDO1 AND/OR TDO MODULATORS” (Hoffmann-La Roche Inc., priority 2015, published 2018):

Molecular target: T1, human TDO (Homo sapiens, UniProt P48775)
T1 construct: expressed in transfected cells; pTet-On plus pTRE2hyg-TDO2
Test: cell based fluorescence assay of TDO activity in HepG2-Tet-on-TDO *25 cells (kynurenine detected with Sensor 1), compared with the prior art biochemical TDO assay
Conditions: IC50 cell-based assay versus biochemical assay
Description: Assay Methods: Cells were seeded 10,000 cells/well in the Cell Plate and incubated at 37° C. and 5% CO2 in the 95% humidified cell culture incubator. Cells were then induced with 1 μg/ml of doxycyline for 24 h to achieve full expression of IDO or TDO. Non-induced cells were used as 100% inhibition control. After washing 3 times with 60 μl of 1× HBSS (37° C.), cells were equilibrated with 60 μl of 1× HBSS in the cell culture incubator for 30 min. After an-other 3 times washing with 60 μl of 1× HBSS (37° C.), cells were treated with compounds for 10 min before adding the substrate, L-tryptophan, to a final concentration of 80 μM. The assay was carried out for 4 h at 37° C. and 5% CO2 in the cell culture incubator. The reaction was then stopped by transfer of 30 μl/well of supernatant into the Assay Plate. 10 μl/well of 30% (w/v) TCA were added and followed by application of Sensor 1 to a final concentration of 10 μM. After brief centrifugation, the fluorescence was measured at Ex: 546, Em: 586nm with a Paradigm (Molecular devices) plate reader. [table]

T1 sequence (P48775 whole entry): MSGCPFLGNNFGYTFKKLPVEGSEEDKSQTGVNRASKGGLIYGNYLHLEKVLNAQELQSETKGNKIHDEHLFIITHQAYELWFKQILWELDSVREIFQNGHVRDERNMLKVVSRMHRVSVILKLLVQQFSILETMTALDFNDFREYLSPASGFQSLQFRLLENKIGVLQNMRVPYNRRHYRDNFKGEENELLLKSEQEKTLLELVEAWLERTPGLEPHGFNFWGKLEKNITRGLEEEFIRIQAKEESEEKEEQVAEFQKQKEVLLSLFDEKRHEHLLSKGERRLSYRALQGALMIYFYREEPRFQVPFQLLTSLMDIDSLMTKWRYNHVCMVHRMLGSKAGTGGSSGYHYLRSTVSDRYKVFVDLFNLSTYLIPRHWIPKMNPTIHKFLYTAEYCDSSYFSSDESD

right-shift of IC50 from biochemical assay to cell-based assay in TDO enzyme activity: Over 100 fold
SMILES: NS(=O)(=O)NCCNc1nonc1/C(=N/O)Nc1ccc(F)c(Br)c1 [INCB024360, (Z)-N-(3-bromo-4-fluorophenyl)-N′-hydroxy-4-(2-(sulfamoylamino)ethylamino)-1,2,5-oxadiazole-3-carboximidamide]
